For one molecule, melting point results are on record in patent US20140228372A1 (priority 2011, published 2014).

For `Cc1cc(C(F)(F)F)nn1CC(=O)N1CCC(c2csc(NC(=O)Cc3c(F)cccc3Cl)n2)CC1` [I.as.001, 2-(2-chloro-6-fluoro-phenyl)-N-(4-{1-[2-(5-methyl-3-trifluoromethyl-pyrazol-1-yl)-acetyl]-piperidin-4-yl}-thiazol-2-yl)-acetamide], the melting point is 249 to 251 °C.

A word on the melting point: it is the temperature, or range, at which the solid turns liquid.
